Results on twelve compounds are retold here after US7615646B2, “Chiral indole intermediates and their fluorescent cyanine dyes containing functional groups” (Carnegie Mellon University, priority 2002, dated 2009).

One data set is described as follows: Measurement of pKa values of pH-sensitive cyanine dyes (fluorescence intensity versus pH). The data set is classed as physicochemical. The following applies: Cl on the unquaternized indolenine unit. The protocol: The general method of pKa determination was performed as follows. Purified dye was dissolved in water to give a bulk stock solution (if necessary, a limited amount of acetonitrile was added to ensure solubility). By experiment, the volume of this stock solution that was required to be added to 10.0 ml of water+0.1% v/v trifluoroacetic acid, in order to give an absorbance of 0.5±0.02 at the dye peak wavelength, was determined. This volume of bulk stock solution was then added to 10.0 ml of water, to be used as the working stock solution.
Aqueous phosphate buffers were prepared covering the region of pH 4-9 {see “Data for Biochemical Research”, p. 432, 3rd edition, R. M. C Dawson, D. C. Elliott, W. H. Elliott & K. M. Jones, 1987 Oxford University Press. Buffers outside the listed range were made by adding in orthophosphoric acid or sodium hydroxide}. Plastic fluorescence cuvettes were then charged with 3.5 ml of each buffer. A fixed volume of dye working stock solution (in the range 50-250 μl) was added to a cuvette of buffer, the solution mixed and the fluorescence signal measured immediately {Perkin Elmer LS55 fluorimeter, excitation 640 nm. Emission spectrum was scanned and fluorescence intensity value at 680 nm recorded}. This was repeated for all cuvettes. The graph of fluorescence intensity versus pH was plotted using PRISM, the data fitted to a sigmoidal dose-response curve and the pKa value extracted as the calculated IC50 value from the fitting.
As to “3-(5-carboxypentyl)-2-[(1E,3E,5E)-5-(7-chloro-3,3-dimethyl-5-sulfo-1,3-dihydro-2H-indol-2-ylidene)penta-1,3-dienyl]-3-methyl-5-sulfo-1-(4-sulfobutyl)-3H-indolium [Dye 4]”, the “lowering of dye pKa relative to dye 1” value is reported as approximately 0.8 units.
Same read-out and setting: in the case of `CC1(CCCCCC(=O)O)C(/C=C/C=C/C=C2/Nc3c(Cl)cc(Cl)cc3C2(C)C)=[N+](CCCCS(=O)(=O)[O-])c2ccc(S(=O)(=O)O)cc21` (stereo not shown) [Dye 2, 3-(5-carboxypentyl)-2-[(1E,3E,5E)-5-(5,7-dichloro-3,3-dimethyl-1,3-dihydro-2H-indol-2-ylidene)penta-1,3-dienyl]-3-methyl-5-sulfo-1-(4-sulfobutyl)-3H-indolium] it was approximately 1.0 units.
Same read-out and setting: next, `CC1(C)C(/C=C/C=C/C=C2/Nc3ccc(Cl)cc3C2(C)C)=[N+](CCCCS(=O)(=O)[O-])c2ccc(S(=O)(=O)O)cc21` [Dye 7, 2-[(1E,3E,5E)-5-(5-chloro-3,3-dimethyl-1,3-dihydro-2H-indol-2-ylidene)penta-1,3-dienyl]-3,3-dimethyl-5-sulfo-1-(4-sulfobutyl)-3H-indolium]: 0.3-0.4 units.

Still in this data set, the particulars now being: observed in aqueous phosphate buffers via fluorescence; excitation 640 nm, emission 680 nm.
`CC1(C)C(/C=C/C=C/C=C2/Nc3ccc(S(=O)(=O)O)cc3C2(C)CCCCCC(=O)O)=[N+](CCCCS(=O)(=O)[O-])c2ccc(S(=O)(=O)O)cc21` (stereo not shown) [Dye 1, 2-{(1E,3E,5E)-5-[3-(5-carboxypentyl)-3-methyl-5-sulfo-1,3-dihydro-2H-indol-2-ylidene]penta-1,3-dienyl}-3,3-dimethyl-5-sulfo-1-(4-sulfobutyl)-3H-indolium]: the pKa (usually the pH at which an ionisable group is half protonated) was found to be 7.
Still for that read-out and setting: next, `CC1(CCCCCC(=O)O)C(/C=C/C=C/C=C2/Nc3c(Cl)cc(Cl)cc3C2(C)C)=[N+](CCCCS(=O)(=O)[O-])c2ccc(S(=O)(=O)O)cc21` (stereo not shown) [Dye 2, 3-(5-carboxypentyl)-2-[(1E,3E,5E)-5-(5,7-dichloro-3,3-dimethyl-1,3-dihydro-2H-indol-2-ylidene)penta-1,3-dienyl]-3-methyl-5-sulfo-1-(4-sulfobutyl)-3H-indolium]: 6.05.
As to `CC1(CCCCCC(=O)O)C(/C=C/C=C/C=C2/Nc3c(Cl)cc(S(=O)(=O)O)cc3C2(C)C)=[N+](CCCCS(=O)(=O)[O-])c2ccc(S(=O)(=O)O)cc21` (stereo not shown) [Dye 4, 3-(5-carboxypentyl)-2-[(1E,3E,5E)-5-(7-chloro-3,3-dimethyl-5-sulfo-1,3-dihydro-2H-indol-2-ylidene)penta-1,3-dienyl]-3-methyl-5-sulfo-1-(4-sulfobutyl)-3H-indolium], the pKa stood at 6.2.
Still for that read-out and setting: in the case of `CC1(C)C(/C=C/C=C/C=C2/Nc3ccc(S(=O)(=O)O)cc3C2(C)C)=[N+](CCCCS(=O)(=O)[O-])c2ccc(S(=O)(=O)O)cc21` [Dye 6, 2-[(1E,3E,5E)-5-(3,3-dimethyl-5-sulfo-1,3-dihydro-2H-indol-2-ylidene)penta-1,3-dienyl]-3,3-dimethyl-5-sulfo-1-(4-sulfobutyl)-3H-indolium] it was 7.
Still for that read-out and setting: next, `CC1(CCCCCC(=O)ON2C(=O)CCC2=O)C(/C=C/C=C/C=C2/Nc3c(Cl)cc(S(=O)(=O)O)cc3C2(C)C)=[N+](CCCCS(=O)(=O)[O-])c2ccc(S(=O)(=O)O)cc21` (stereo not shown) [Dye 16.3, 3-(5-Carboxypentyl)-2-[(1E,3E,5E)-5-(7-chloro-3,3-dimethyl-5-sulfo-1,3-dihydro-2H-indol-2-ylidene)penta-1,3-dienyl]-3-methyl-5-sulfo-1-(4-sulfobutyl)-3H-indolium, N-hydroxysuccinimidyl ester]: 6.2.
Same read-out and setting: next, `CC1(C)C(/C=C/C=C/C=C2/Nc3ccc(S(=O)(=O)O)cc3C2(C)CCCCCC(=O)O)=[N+](CCCCS(=O)(=O)[O-])c2ccc(Cl)cc21` (stereo not shown) [Example 3]: 7.44; `CC1(C)C(/C=C/C=C/C=C2/Nc3ccccc3C2(C)C)=[N+](CCCCS(=O)(=O)[O-])c2ccc(S(=O)(=O)O)cc21` [Example 5]: 7.
As for `CC1(C)C(/C=C/C=C/C=C2/Nc3ccc(Cl)cc3C2(C)C)=[N+](CCCCS(=O)(=O)[O-])c2ccc(S(=O)(=O)O)cc21` [Example 7], the pKa came out at 6.65.
For `CC1(C)C(/C=C/C=C/C=C2/Nc3ccc(C#N)cc3C2(C)C)=[N+](CCCCS(=O)(=O)[O-])c2ccc(S(=O)(=O)O)cc21` [Example 8], the pKa was 6.65.
The same measure, in the same setting: next, `CC1(C)C(/C=C/C=C/C=C2/Nc3ccc(S(=O)(=O)O)cc3C2(C)C)=[N+](CCCCS(=O)(=O)[O-])c2ccc(Cl)cc21` [Example 9]: 7.36.
